In ChEMBL document CHEMBL1137216, “Identification of a new scaffold for opioid receptor antagonism based on the 2-amino-1,1-dimethyl-7-hydroxytetralin pharmacophore” (J Med Chem, 2004):

Columns and labels:
[1] = molecular target: T1, Kappa-type opioid receptor (Homo sapiens, UniProt P41145); assay: Inhibition of [3H]U-69593 binding to human kappa opioid receptor expressed in CHO cells; type: cell-based
[2] = molecular target: T2, Delta-type opioid receptor (Homo sapiens, UniProt P41143); assay: Inhibition of [3H]C1-DPDPE binding to human delta opioid receptor expressed in CHO cells; type: cell-based
T2 sequence (P41143 whole entry): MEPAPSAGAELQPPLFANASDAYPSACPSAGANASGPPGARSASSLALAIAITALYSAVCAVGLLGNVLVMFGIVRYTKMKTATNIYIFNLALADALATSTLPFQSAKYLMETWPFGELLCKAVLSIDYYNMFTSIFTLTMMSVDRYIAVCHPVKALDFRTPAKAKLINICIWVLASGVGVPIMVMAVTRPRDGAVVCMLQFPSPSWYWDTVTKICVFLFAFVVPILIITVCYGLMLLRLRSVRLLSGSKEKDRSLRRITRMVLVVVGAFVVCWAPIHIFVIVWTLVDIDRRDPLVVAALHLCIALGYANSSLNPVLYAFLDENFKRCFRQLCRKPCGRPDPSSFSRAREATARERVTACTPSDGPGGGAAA

[3] = molecular target: T3, Mu-type opioid receptor (Homo sapiens, UniProt P35372); assay: Inhibition of [3H]DAMGO binding to human Mu opioid receptor expressed in CHO cells; type: cell-based
T3 sequence (P35372 whole entry): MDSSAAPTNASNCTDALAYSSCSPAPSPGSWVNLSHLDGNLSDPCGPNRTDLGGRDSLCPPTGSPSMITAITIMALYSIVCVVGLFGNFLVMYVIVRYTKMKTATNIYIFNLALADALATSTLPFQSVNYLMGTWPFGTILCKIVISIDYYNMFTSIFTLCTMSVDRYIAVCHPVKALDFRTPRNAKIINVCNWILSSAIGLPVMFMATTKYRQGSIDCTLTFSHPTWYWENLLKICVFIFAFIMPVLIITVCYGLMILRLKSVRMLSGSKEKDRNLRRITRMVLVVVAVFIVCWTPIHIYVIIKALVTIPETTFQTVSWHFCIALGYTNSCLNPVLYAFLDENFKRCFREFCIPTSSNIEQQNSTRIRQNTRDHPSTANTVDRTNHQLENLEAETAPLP

[4] = molecular target: T2, Delta-type opioid receptor
Description: Antagonist potency towards human delta opioid receptor in [35S]GTP-gamma-S, assay

[5] = molecular target: T1, Kappa-type opioid receptor
Description: Antagonist potency towards human kappa opioid receptor in [35S]GTP-gamma-S, assay

[6] = molecular target: T3, Mu-type opioid receptor
Description: Antagonist potency towards human mu opioid receptor in [35S]GTP-gamma-S, assay

[7] = molecular target: T3, Mu-type opioid receptor; remark: listed apart in the source
Description: Agonist potency towards human mu opioid receptor in [35S]GTP-gamma-S, assay

T1 sequence (P41145 whole entry): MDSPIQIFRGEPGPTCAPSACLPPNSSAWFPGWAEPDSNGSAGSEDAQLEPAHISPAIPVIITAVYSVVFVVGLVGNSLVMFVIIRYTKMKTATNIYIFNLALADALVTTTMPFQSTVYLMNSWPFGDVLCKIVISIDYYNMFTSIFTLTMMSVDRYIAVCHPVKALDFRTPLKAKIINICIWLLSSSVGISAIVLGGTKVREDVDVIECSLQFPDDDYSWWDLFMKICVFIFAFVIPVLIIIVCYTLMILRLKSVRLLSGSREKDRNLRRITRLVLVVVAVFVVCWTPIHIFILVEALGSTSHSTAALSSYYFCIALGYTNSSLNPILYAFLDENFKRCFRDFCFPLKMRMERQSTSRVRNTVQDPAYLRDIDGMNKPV

CO[C@H]1Cc2ccc(O)cc2C(C)(C)[C@@H]1NC/C=C/c1ccccc1
Ki [1]: 7.5 nM | Ki [2]: 22.4 nM | Ki [3]: 1.63 nM | Ke [4]: 26.3 nM | Ke [5]: 2.12 nM | Ke [6]: 2.62 nM

Oc1ccc2c3c1O[C@H]1c4[nH]c5c(c4C[C@@]4(O)[C@@H](C2)N(CC2CC2)CC[C@]314)C[C@@]1(O)[C@H]2Cc3ccc(O)c4c3[C@@]1(CCN2CC1CC1)[C@H]5O4
Ke [5]: 0.03 nM

CN(C)C1CCc2ccc(O)cc2C1(C)C (configuration not stated)
Ki [1]: 333 nM | Ki [2]: 4010 nM | Ki [3]: 114 nM

C=CCNC1CCc2ccc(O)cc2C1(C)C (configuration not stated)
Ki [1]: 63.7 nM | Ki [2]: 5830 nM | Ki [3]: 202 nM

CCCN(C)C1CCc2ccc(O)cc2C1(C)C (configuration not stated)
Ki [1]: 184 nM | Ki [2]: 2090 nM | Ki [3]: 85 nM

CC1(C)c2cc(O)ccc2CCC1N(C/C=C/c1ccccc1)C/C=C/c1ccccc1 (configuration not stated)
Ki [1]: 1250 nM | Ki [2]: > 10000 nM | Ki [3]: 268 nM

CC1(C)c2cc(O)ccc2CCC1N(CC1CC1)CC1CC1 (configuration not stated)
Ki [1]: 1830 nM | Ki [2]: 5770 nM | Ki [3]: 422 nM

CN(C/C=C/c1ccccc1)C1CCc2ccc(O)cc2C1(C)C (configuration not stated)
Ki [1]: 207 nM | Ki [2]: 591 nM | Ki [3]: 39.7 nM

CO[C@H]1Cc2ccc(O)cc2C(C)(C)[C@@H]1N
Ki [1]: 149 nM | Ki [2]: 2430 nM | Ki [3]: 17.5 nM | Ke [7]: 234 nM | Ke [5]: 49.3 nM

CN(CC1CC1)C1CCc2ccc(O)cc2C1(C)C (configuration not stated)
Ki [1]: 146 nM | Ki [2]: 601 nM | Ki [3]: 104 nM

CCCNC1CCc2ccc(O)cc2C1(C)C (configuration not stated)
Ki [1]: 251 nM | Ki [2]: > 10000 nM | Ki [3]: 491 nM

CC1(C)c2cc(O)ccc2CCC1NC/C=C/c1ccccc1 (configuration not stated)
Ki [1]: 82.3 nM | Ki [2]: 472 nM | Ki [3]: 10.7 nM | Ke [5]: 42.7 nM | Ke [6]: 67.7 nM

C=CCN(CC=C)C1CCc2ccc(O)cc2C1(C)C (configuration not stated)
Ki [1]: 55.8 nM | Ki [2]: 672 nM | Ki [3]: 105 nM

C=CCN(C)C1CCc2ccc(O)cc2C1(C)C (configuration not stated)
Ki [1]: 263 nM | Ki [2]: 2220 nM

CC1(C)c2cc(O)ccc2CCC1NCC1CC1 (configuration not stated)
Ki [1]: 232 nM | Ki [2]: 3830 nM | Ki [3]: 312 nM

CCCN(CCC)C1CCc2ccc(O)cc2C1(C)C (configuration not stated)
Ki [1]: 552 nM | Ki [2]: 2720 nM | Ki [3]: 482 nM
